Measurements: patent US20240043927A1, “METHOD FOR IDENTIFYING SUBSTANCE CAPABLE OF AFFECTING AGING” (ZHEJIANG BAISHOUKANGDI CO., LTD., priority 2019, published 2024)

Columns and labels:
[1] = system: Zip11; assay: Zip11 mRNA expression in human cells treated with vitamins; format: cell-based; conditions: Human HEK293 and HT1080 cells, treated 24 hours; vitamin B3 10, 50, 100 μM; vitamin B12 1, 10, 50 μM; vitamin C 10, 100, 500 μM
Protocol: Human HEK293 and HT1080 cells were treated for 24 hours respectively at different concentrations of vitamin B3 (10 μM, 50 μM, 100 μM), vitamin B12 (1 μM, 10 μM, 50 μM) and vitamin C (10 μM, 100 μM, 500 μM). The relative expression quantity of Zip11 mRNA was detected.

[2] = system: ZIP11; assay: ZIP11 expression in liver of wild-type mice injected with concanavalin A (RT-PCR); format: in vivo, mouse; conditions: wild-type C57BL/6 mice, 10 mg/kg through the tail vein, after 18 hours
Protocol: The wild-type C57BL/6 mice were divided into two groups. An experimental group was injected with 10 mg/kg concanavalin (ConA) through the tail vein.

| Compound | relative expression quantity of Zip11 mRNA [1] | expression level of ZIP11 in liver tissue (RT-PCR, β-actin as reference) [2] |
| --- | --- | --- |
| O=C(O)c1cccnc1 [vitamin B3] | increase the expression level of Zip11 |  |
| O=C1O[C@H]([C@@H](O)CO)C(O)=C1O [vitamin C] | increase the expression level of Zip11 |  |
| Concanavalin A [ConA] |  | decrease the level of ZIP11 |
| vitamin B12 | increase the expression level of Zip11 |  |
